Values after ≈ are worked out from the molar mass of the structure shown. Read-outs that look alike come from different tables or passages of the source.
Legend:
[1] = test system: C. difficile ATCC BAA 1870; assay: MIC/MBC broth microdilution, C. difficile ATCC BAA 1870; assay type: cell-based, Clostridioides difficile; conditions: for MIC: broth microdilution, anaerobic 48 hours 37°C, visual, read-out: MIC; for MBC: plated on BHIS agar, read-out: MBC
Experimental: (§1) The susceptibility of C. difficile isolates to the CPP-PNA conjugates or to the CPP alone was determined in vitro as described before with slight modifications ([43] [–] [45]). Briefly, the CPP-PNA conjugates, the CPP alone, and the antibiotics vancomycin and fidaxomicin were added in triplicate to the first row of ultra-low adhesion 96-well plates (Corning Inc., Corning, NY). A suspension of C. difficile equivalent to 0.5 McFarland solution was added to Mueller-Hilton II broth, which was then added to the ultra-low adhesion plate and then serially diluted. The plates were incubated anaerobically for 48 hours at 37°C. The minimum inhibitory concentration was defined as the lowest concentration of the CPP-PNA conjugate that could inhibit bacterial growth when observed visually.
(§2) The MIC and MBC experiments were repeated twice.

C. difficile 1071 = assay: MIC/MBC broth microdilution, C. difficile 1071; assay type: cell-based, Clostridioides difficile; conditions: for MIC: broth microdilution, anaerobic 48 hours 37°C, visual, read-out: MIC; for MBC: plated on BHIS agar, read-out: MBC
Experimental: as §1, §2

[2] = test system: Lactobacillus rhamnosus ATCC 53103; assay: MIC gut microflora, Lactobacillus rhamnosus; assay type: cell-based; conditions: broth microdilution, MRS broth, 48 hours, read-out: MIC
Experimental: (§3) The susceptibility of gut microflora strains to the rpoA-TAT conjugate was determined using the broth microdilution assay, as described above. Briefly, bacterial suspensions of Bifidobacterium sp. and Bacteroides sp., in supplemented BHIS broth, and Lactobacilli strains, in MRS broth, were added to ultra-low adhesion 96-well plates and serially diluted. The MIC was recorded after 48 hours.

[3] = test system: toxin A and toxin B production by C. difficile 630; assay: Toxin production inhibition (ELISA); assay type: cell-based, Clostridioides difficile; conditions: 8 hours, ELISA of supernatant, triplicate
Experimental: After the incubation period, the bacterial count in each treatment group was determined by serial dilution and plating. Toxin content in the supernatant of each treatment group was determined using an enzyme-linked immunosorbent assay (ELISA, tgcBIOMICS) kit, as per the manufacturer’s protocol.

C. difficile 630 = assay: Killing kinetics (time-kill assay); assay type: cell-based, Clostridioides difficile; conditions: 1× MIC, inoculum ~5 × 10^5 CFU/mL, triplicate
Experimental: The killing kinetics of the PNA construct was determined as described previously ([45] [–] [47]). Briefly, an overnight culture of C. difficile 630 was diluted 1:50 into fresh Mueller Hilton II broth (~10^5 CFU/mL) and added in triplicate to low adhesion microcentrifuge tubes containing either sterile water, the rpoA-TAT construct (1× MIC), or the positive controls vancomycin or fidaxomicin (1× MIC). The number of viable bacteria in each treatment group was determined by taking aliquots at 0, 4, 8, 12, 16, and 24 hours; these aliquots were then serially diluted and plated on BHIS agar plates. The plates were incubated anaerobically, and the number of colony-forming units for each treatment group was recorded the following day. The experiment was repeated twice.

C. difficile 1082 = assay: MIC/MBC broth microdilution, C. difficile 1082; assay type: cell-based, Clostridioides difficile; conditions: for MIC: broth microdilution, anaerobic 48 hours 37°C, visual, read-out: MIC; for MBC: plated on BHIS agar, read-out: MBC
Experimental: as §1, §2

[4] = test system: Lactobacillus brevis ATCC 14869; assay: MIC gut microflora, Lactobacillus brevis; assay type: cell-based; conditions: broth microdilution, MRS broth, 48 hours, read-out: MIC
Experimental: as §3

[5] = test system: spore formation by C. difficile ATCC 630; assay: Spore formation inhibition; assay type: cell-based, Clostridioides difficile; conditions: 0.5× MIC, 12 hours, compared to negative control (no treatment); for log reduction in the spore count: triplicate
Experimental: After the incubation period, the total bacterial count for each treatment group was determined by serial dilution and plating on BHIS agar plates supplemented with 0.1% taurocholic acid. To determine the presence of spores, the remaining bacterial culture from each treatment group was heated at 65°C for 30 minutes to ensure all vegetative cells were killed. The bacterial culture from each treatment group was then serially diluted and plated on BHIS agar plates supplemented with 0.1% taurocholic acid. The plates were incubated overnight, and the CFU counts for each treatment group were determined the following day.

C. difficile ATCC 630 [6] = assay: Effect of pH on MIC/MBC, C. difficile ATCC 630; assay type: cell-based, Clostridioides difficile; conditions: for MBC: read-out: MBC; for MIC: read-out: MIC
Experimental: as §1, §2
The susceptibility of C. difficile (ATCC 630 and ATCC BAA 1870) to the rpoA-TAT conjugate was evaluated over a pH range of 6 to 9 using the broth microdilution method ([43], [46] [–] [48]). The desired pH for susceptibility testing was attained by the addition of either 0.1 N HCL or 1 N NaOH to the media. The experiment was repeated twice.

C. difficile ATCC 43255 = assay: MIC/MBC broth microdilution, C. difficile ATCC 43255; assay type: cell-based, Clostridioides difficile; conditions: for MIC: broth microdilution, anaerobic 48 hours 37°C, visual, read-out: MIC; for MBC: plated on BHIS agar, read-out: MBC
Experimental: as §1, §2

[7] = test system: Lactobacillus gasseri ATCC 19992; assay: MIC gut microflora, Lactobacillus gasseri; assay type: cell-based; conditions: broth microdilution, MRS broth, 48 hours, read-out: MIC
Experimental: as §3

[8] = test system: Bacteroides fragilis HM 714; assay: MIC gut microflora, Bacteroides fragilis; assay type: cell-based; conditions: broth microdilution, supplemented BHIS broth, 48 hours, read-out: MIC
Experimental: as §3

C. difficile ATCC 630 [9] = assay: microbe, parasite or virus in culture
Experimental: as §1, §2

C. difficile 1079 = assay: MIC/MBC broth microdilution, C. difficile 1079; assay type: cell-based, Clostridioides difficile; conditions: for MIC: broth microdilution, anaerobic 48 hours 37°C, visual, read-out: MIC; for MBC: plated on BHIS agar, read-out: MBC
Experimental: as §1, §2

[10] = Clostridioides difficile, BAA1870
[11] = Clostridioides difficile, ATCC630, pH 6
[12] = Clostridioides difficile, ATCC630, pH 7
[13] = Clostridioides difficile, ATCC630, pH 8
[14] = Clostridioides difficile, ATCC43255

Work on “GRKKKRRQRRRYK-O-CATGGACAAAAC-NH2 [rpoA-TAT, PNA oligomer antisense to C. difficile rpoA covalently conjugated to the TAT cell penetrating peptide]” yielded an MIC [1] of 8 µM, an MBC [1] of 8 µM and an MIC (C. difficile 1071) of 8 µM. The MBC (C. difficile 1071) was 8 µM, the MIC [2] was greater than 32 µM and the “reduction of C. difficile toxin production” value ([3]; 0.125× MIC) was 34.9%. The “reduction of C. difficile toxin production” value ([3]; 0.25× MIC) was 54.3%, the “reduction of C. difficile toxin production” value ([3]; 0.5× MIC) was 55.2% and the “time to eradication of bacteria (below the limit of detection, 250 CFU/mL)” value (C. difficile 630) was no more than 8 h. It also gave an MIC (C. difficile 1082) of 4 µM, an MBC (C. difficile 1082) of 4 µM and an MIC [4] greater than 32 µM. For the same compound, the “reduction in the spore count” value [5] was 99.9%, the “log reduction in the spore count” value [5] was 3.44 log and the MBC (C. difficile ATCC 630 [6]; pH 6) was 8 µM. For the same compound, the MIC (C. difficile ATCC 630 [6]; pH 6) was 8 µM, the MBC (C. difficile ATCC 630 [6]; pH 7) was 8 µM and the MIC (C. difficile ATCC 630 [6]; pH 7) was 8 µM. It also gave an MBC (C. difficile ATCC 630 [6]; pH 8) of 8 µM, an MIC (C. difficile ATCC 630 [6]; pH 8) of 8 µM and an MIC (C. difficile ATCC 43255) of 8 µM. The MBC (C. difficile ATCC 43255) was 8 µM, the MIC [7] was greater than 32 µM and the MIC [8] was greater than 32 µM. For the same compound, the MBC (C. difficile ATCC 630 [9]; aliquots of wells without growth plated on BHIS agar, repeated twice) was 8 µM, the MIC (C. difficile ATCC 630 [9]; broth microdilution, Mueller-Hilton II broth, anaerobic 48 hours 37°C, visual, triplicate, repeated twice) was 8 µM and the MIC (C. difficile 1079) was 8 µM. For the same compound, the MBC (C. difficile 1079) was 8 µM.

For `CCc1c(Cl)c(O)c(Cl)c(O)c1C(=O)O[C@H]1[C@H](O)[C@H](OC)[C@H](OC/C2=C\C=C\C[C@H](O)/C(C)=C/[C@H](CC)[C@@H](O[C@@H]3OC(C)(C)[C@@H](OC(=O)C(C)C)[C@H](O)[C@@H]3O)/C(C)=C/C(C)=C/C[C@@H]([C@@H](C)O)OC2=O)O[C@@H]1C` [Fidaxomicin, fidaxomicin], the MIC [1, 10] was 1 µM (≈ 1.06 µg/mL), the MBC [1, 10] was 1 µM (≈ 1.06 µg/mL) and the MIC (C. difficile 1071; Clostridioides difficile, 1071) was 1 µM (≈ 1.06 µg/mL). For the same compound, the MBC (C. difficile 1071; Clostridioides difficile, 1071) was 1 µM (≈ 1.06 µg/mL), the MIC ([2]; Lacticaseibacillus rhamnosus, ATCC53103) was greater than 2 µM and the “reduction of C. difficile toxin production” value ([3]; 0.125× MIC) was 45.7%. The “reduction of C. difficile toxin production” value ([3]; 0.25× MIC) was 50.6%, the “reduction of C. difficile toxin production” value ([3]; 0.5× MIC) was 54% and the “time to eradication of bacteria (below the limit of detection, 250 CFU/mL)” value (C. difficile 630) was no more than 12 h. The MIC (C. difficile 1082; Clostridioides difficile, 1082) was 2 µM (≈ 2.12 µg/mL), the MBC (C. difficile 1082; Clostridioides difficile, 1082) was 2 µM (≈ 2.12 µg/mL) and the MIC ([4]; Levilactobacillus brevis, ATCC14869) was greater than 2 µM. The “reduction in the spore count” value [5] was 99.9%, the “log reduction in the spore count” value [5] was 3.44 log and the MBC (C. difficile ATCC 630 [6]; [11]) was 1 µM (≈ 1.06 µg/mL). The MIC (C. difficile ATCC 630 [6]; [11]) was 0.5 µM (≈ 0.529 µg/mL), the MBC (C. difficile ATCC 630 [6]; [12]) was 1 µM (≈ 1.06 µg/mL) and the MIC (C. difficile ATCC 630 [6]; [12]) was 0.5 µM (≈ 0.529 µg/mL). It also gave an MBC (C. difficile ATCC 630 [6]; [13]) of 4 µM (≈ 4.23 µg/mL), an MIC (C. difficile ATCC 630 [6]; [13]) of 1 µM (≈ 1.06 µg/mL) and an MIC (C. difficile ATCC 43255; [14]) of 0.5 µM (≈ 0.529 µg/mL). For the same compound, the MBC (C. difficile ATCC 43255; [14]) was 0.5 µM (≈ 0.529 µg/mL), the MIC ([7]; Lactobacillus gasseri, ATCC19992) was greater than 2 µM and the MIC ([8]; Bacteroides fragilis, HM714) was greater than 2 µM. The MBC (C. difficile ATCC 630 [9]; Clostridioides difficile, ATCC630) was 0.5 µM (≈ 0.529 µg/mL), the MIC (C. difficile ATCC 630 [9]; Clostridioides difficile, ATCC630, 48 h) was 0.5 µM (≈ 0.529 µg/mL) and the MIC (C. difficile 1079; Clostridioides difficile, 1079) was 2 µM (≈ 2.12 µg/mL). It also gave an MBC (C. difficile 1079; Clostridioides difficile, 1079) of 2 µM (≈ 2.12 µg/mL).
